Assay results taken from the NIST ThermoML archive (doi:10.1016/j.jct.2004.06.009).
Numbers after ± are expanded uncertainties.

Experiments:
[1] = Molar enthalpy of transition or fusion

Row | Triple point temperature (Crystal 1) | Triple point temperature (Crystal 2) | Molar enthalpy of transition or fusion ([1]; Crystal 1) | Molar enthalpy of transition or fusion ([1]; Crystal 2) | Triple point temperature (Crystal) | Molar enthalpy of transition or fusion ([1]; Crystal) | Structure (SMILES)
1 | 247.79 ± 0.16 K | 223.38 ± 0.16 K | 0.368 ± 0.0098 kcal/mol | 2.225 ± 0.00717 kcal/mol | – | – | CC12CC3CC(C1)CC(C)(C3)C2 [1,3-dimethyladamantane]
2 | – | – | – | – | 225.56 ± 0.16 K | 2.696 ± 0.012 kcal/mol | CCC12CC3CC(CC(C3)C1)C2 [1-ethyladamantane]
